Source: the NIST ThermoML archive (doi:10.1007/s10765-010-0768-y)
± gives the expanded uncertainty stated by the source.

Experiments:
[1] = 101 kPa, Liquid, Pycnometric method
[2] = xn = mol fraction of the nth substance listed; conditions: 101 kPa, Liquid, Pycnometric method, x2 = 0

With `C=CC(=O)OCCCC` [butyl 2-propenoate] the mass density ([1]; 288.15 K) was 903.6 ± 0.27 kg/m3, the mass density ([1]; 293.15 K) was 898.85 ± 0.26 kg/m3 and the mass density ([1]; 298.15 K) was 894.1 ± 0.27 kg/m3. For the same compound, the mass density ([1]; 303.15 K) was 889.35 ± 0.28 kg/m3, the mass density ([1]; 308.15 K) was 884.6 ± 0.29 kg/m3 and the mass density ([1]; 313.15 K) was 879.85 ± 0.3 kg/m3. The mass density ([1]; 318.15 K) was 875.1 ± 0.31 kg/m3.

Work on `Cc1ccccc1C` [1,2-dimethylbenzene] + C=CC(=O)OCCCC yielded a mass density ([2]; 288.15 K) of 884.09 ± 0.22 kg/m3, a mass density ([2]; 293.15 K) of 879.83 ± 0.21 kg/m3 and a mass density ([2]; 298.15 K) of 875.57 ± 0.22 kg/m3. The mass density ([2]; 303.15 K) was 871.31 ± 0.23 kg/m3, the mass density ([2]; 308.15 K) was 867.05 ± 0.24 kg/m3 and the mass density ([2]; 313.15 K) was 862.79 ± 0.25 kg/m3. For the same compound, the mass density ([2]; 318.15 K) was 858.53 ± 0.26 kg/m3.

In the case of `Cc1ccc(C)cc1` [1,4-dimethylbenzene] + C=CC(=O)OCCCC, the mass density ([2]; 288.15 K) is reported as 865.52 ± 0.22 kg/m3, the mass density ([2]; 293.15 K) is reported as 861.17 ± 0.2 kg/m3 and the mass density ([2]; 298.15 K) is reported as 856.82 ± 0.21 kg/m3. For the same compound, the mass density ([2]; 303.15 K) was 852.47 ± 0.22 kg/m3, the mass density ([2]; 308.15 K) was 848.12 ± 0.23 kg/m3 and the mass density ([2]; 313.15 K) was 843.77 ± 0.24 kg/m3. It also gave a mass density ([2]; 318.15 K) of 839.42 ± 0.25 kg/m3.

For `Cc1cc(C)cc(C)c1` [1,3,5-trimethylbenzene], the mass density ([1]; 288.15 K) was 869.28 ± 0.24 kg/m3, the mass density ([1]; 293.15 K) was 865.37 ± 0.23 kg/m3 and the mass density ([1]; 298.15 K) was 861.45 ± 0.24 kg/m3. For the same compound, the mass density ([1]; 303.15 K) was 857.54 ± 0.25 kg/m3, the mass density ([1]; 308.15 K) was 853.63 ± 0.26 kg/m3 and the mass density ([1]; 313.15 K) was 849.71 ± 0.27 kg/m3. For the same compound, the mass density ([1]; 318.15 K) was 845.8 ± 0.28 kg/m3.

`c1ccccc1` [benzene] gave a mass density ([1]; 288.15 K) of 884.3 ± 0.22 kg/m3, a mass density ([1]; 293.15 K) of 878.95 ± 0.2 kg/m3 and a mass density ([1]; 298.15 K) of 873.61 ± 0.21 kg/m3. For the same compound, the mass density ([1]; 303.15 K) was 868.26 ± 0.22 kg/m3, the mass density ([1]; 308.15 K) was 862.9 ± 0.23 kg/m3 and the mass density ([1]; 313.15 K) was 857.56 ± 0.24 kg/m3. It also gave a mass density ([1]; 318.15 K) of 852.23 ± 0.25 kg/m3.

`Cc1cccc(C)c1` [1,3-dimethylbenzene] showed a mass density ([1]; 288.15 K) of 868.59 ± 0.22 kg/m3, a mass density ([1]; 293.15 K) of 864.31 ± 0.21 kg/m3 and a mass density ([1]; 298.15 K) of 860.02 ± 0.22 kg/m3. It also gave a mass density ([1]; 303.15 K) of 855.74 ± 0.23 kg/m3, a mass density ([1]; 308.15 K) of 851.45 ± 0.24 kg/m3 and a mass density ([1]; 313.15 K) of 847.17 ± 0.25 kg/m3. For the same compound, the mass density ([1]; 318.15 K) was 842.88 ± 0.26 kg/m3.

In the case of `Cc1ccccc1` [toluene] + C=CC(=O)OCCCC, the mass density ([2]; 288.15 K) is reported as 871.79 ± 0.21 kg/m3, the mass density ([2]; 293.15 K) is reported as 867.08 ± 0.2 kg/m3 and the mass density ([2]; 298.15 K) is reported as 862.36 ± 0.21 kg/m3. The mass density ([2]; 303.15 K) was 857.64 ± 0.22 kg/m3, the mass density ([2]; 308.15 K) was 852.93 ± 0.23 kg/m3 and the mass density ([2]; 313.15 K) was 848.21 ± 0.24 kg/m3. It also gave a mass density ([2]; 318.15 K) of 843.49 ± 0.25 kg/m3.

With `c1ccccc1` [benzene] + C=CC(=O)OCCCC the mass density ([2]; 288.15 K) was 884.3 ± 0.22 kg/m3, the mass density ([2]; 293.15 K) was 878.95 ± 0.2 kg/m3 and the mass density ([2]; 298.15 K) was 873.61 ± 0.21 kg/m3. The mass density ([2]; 303.15 K) was 868.26 ± 0.22 kg/m3, the mass density ([2]; 308.15 K) was 862.9 ± 0.23 kg/m3 and the mass density ([2]; 313.15 K) was 857.56 ± 0.24 kg/m3. The mass density ([2]; 318.15 K) was 852.23 ± 0.25 kg/m3.

`Cc1cc(C)cc(C)c1` [1,3,5-trimethylbenzene] + C=CC(=O)OCCCC showed a mass density ([2]; 288.15 K) of 869.28 ± 0.24 kg/m3, a mass density ([2]; 293.15 K) of 865.37 ± 0.23 kg/m3 and a mass density ([2]; 298.15 K) of 861.45 ± 0.24 kg/m3. It also gave a mass density ([2]; 303.15 K) of 857.54 ± 0.25 kg/m3, a mass density ([2]; 308.15 K) of 853.63 ± 0.26 kg/m3 and a mass density ([2]; 313.15 K) of 849.71 ± 0.27 kg/m3. The mass density ([2]; 318.15 K) was 845.8 ± 0.28 kg/m3.

`Cc1cccc(C)c1` [1,3-dimethylbenzene] + C=CC(=O)OCCCC showed a mass density ([2]; 288.15 K) of 868.59 ± 0.22 kg/m3, a mass density ([2]; 293.15 K) of 864.31 ± 0.21 kg/m3 and a mass density ([2]; 298.15 K) of 860.02 ± 0.22 kg/m3. It also gave a mass density ([2]; 303.15 K) of 855.74 ± 0.23 kg/m3, a mass density ([2]; 308.15 K) of 851.45 ± 0.24 kg/m3 and a mass density ([2]; 313.15 K) of 847.17 ± 0.25 kg/m3. For the same compound, the mass density ([2]; 318.15 K) was 842.88 ± 0.26 kg/m3.

Work on `Cc1ccccc1C` [1,2-dimethylbenzene] yielded a mass density ([1]; 288.15 K) of 884.09 ± 0.22 kg/m3, a mass density ([1]; 293.15 K) of 879.83 ± 0.21 kg/m3 and a mass density ([1]; 298.15 K) of 875.57 ± 0.22 kg/m3. The mass density ([1]; 303.15 K) was 871.31 ± 0.23 kg/m3, the mass density ([1]; 308.15 K) was 867.05 ± 0.24 kg/m3 and the mass density ([1]; 313.15 K) was 862.79 ± 0.25 kg/m3. For the same compound, the mass density ([1]; 318.15 K) was 858.53 ± 0.26 kg/m3.

For `Cc1ccc(C)cc1` [1,4-dimethylbenzene], the mass density ([1]; 288.15 K) was 865.52 ± 0.22 kg/m3, the mass density ([1]; 293.15 K) was 861.17 ± 0.2 kg/m3 and the mass density ([1]; 298.15 K) was 856.82 ± 0.21 kg/m3. For the same compound, the mass density ([1]; 303.15 K) was 852.47 ± 0.22 kg/m3, the mass density ([1]; 308.15 K) was 848.12 ± 0.23 kg/m3 and the mass density ([1]; 313.15 K) was 843.77 ± 0.24 kg/m3. It also gave a mass density ([1]; 318.15 K) of 839.42 ± 0.25 kg/m3.

Work on `Cc1ccccc1` [toluene] yielded a mass density ([1]; 288.15 K) of 871.79 ± 0.21 kg/m3, a mass density ([1]; 293.15 K) of 867.08 ± 0.2 kg/m3 and a mass density ([1]; 298.15 K) of 862.36 ± 0.21 kg/m3. It also gave a mass density ([1]; 303.15 K) of 857.64 ± 0.22 kg/m3, a mass density ([1]; 308.15 K) of 852.93 ± 0.23 kg/m3 and a mass density ([1]; 313.15 K) of 848.21 ± 0.24 kg/m3. It also gave a mass density ([1]; 318.15 K) of 843.49 ± 0.25 kg/m3.
